# Source: ChEMBL document CHEMBL1124673, “A multisubstrate adduct inhibitor of a purine biosynthetic enzyme with a picomolar dissociation constant” (J Med Chem, 1989)
# What was measured:
# [1] = target: T1, Trifunctional purine biosynthetic protein adenosine-3 (Mus musculus, UniProt Q64737); experiment: Thermodynamic dissociation constant (KD) was measured upon binding to GAR TFase in mice
# T1 sequence (Q64737 whole entry): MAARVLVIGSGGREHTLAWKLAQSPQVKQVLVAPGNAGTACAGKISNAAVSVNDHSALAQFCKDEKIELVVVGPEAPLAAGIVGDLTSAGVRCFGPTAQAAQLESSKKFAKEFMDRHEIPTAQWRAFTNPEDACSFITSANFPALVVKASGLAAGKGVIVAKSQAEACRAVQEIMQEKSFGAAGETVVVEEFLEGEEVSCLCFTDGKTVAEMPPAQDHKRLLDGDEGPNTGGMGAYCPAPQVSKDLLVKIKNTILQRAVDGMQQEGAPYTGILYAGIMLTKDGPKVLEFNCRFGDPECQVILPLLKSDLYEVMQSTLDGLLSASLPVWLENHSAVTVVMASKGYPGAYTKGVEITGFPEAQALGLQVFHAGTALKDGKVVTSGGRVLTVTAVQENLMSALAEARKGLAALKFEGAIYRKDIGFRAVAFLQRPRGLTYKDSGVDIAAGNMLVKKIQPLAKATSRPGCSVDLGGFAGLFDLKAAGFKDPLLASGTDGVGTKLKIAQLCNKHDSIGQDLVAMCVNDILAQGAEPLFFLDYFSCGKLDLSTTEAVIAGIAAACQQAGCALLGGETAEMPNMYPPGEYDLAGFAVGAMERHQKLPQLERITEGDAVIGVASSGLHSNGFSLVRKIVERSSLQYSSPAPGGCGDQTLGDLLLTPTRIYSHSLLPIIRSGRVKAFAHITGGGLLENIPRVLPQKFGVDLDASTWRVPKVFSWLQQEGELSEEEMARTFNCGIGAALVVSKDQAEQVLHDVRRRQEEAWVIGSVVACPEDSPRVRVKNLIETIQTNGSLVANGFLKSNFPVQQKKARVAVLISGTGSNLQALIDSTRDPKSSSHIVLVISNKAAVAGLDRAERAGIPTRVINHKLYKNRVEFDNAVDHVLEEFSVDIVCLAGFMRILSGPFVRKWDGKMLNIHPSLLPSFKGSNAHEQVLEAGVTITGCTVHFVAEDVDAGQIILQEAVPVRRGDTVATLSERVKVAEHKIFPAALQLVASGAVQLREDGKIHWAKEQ
# [2] = target: T1, Trifunctional purine biosynthetic protein adenosine-3; experiment: Compound was tested for inhibition constant against GAR TFase in mice
compound,measurement,setting,value
Nc1nc2ccc(CN(C(=O)CSCC(=O)NC3O[C@H](COP(=O)(O)O)[C@@H](O)[C@H]3O)c3ccc(C(=O)N[C@H](CCC(=O)O)C(=O)O)cc3)cc2c(=O)[nH]1 (some centres not stated),Kd,[1],250 pM
same,Ki,[2],> 100000 pM
